“Also recorded” adds a separate entry of the source.

This assay relates to TR146 cells. The experiment in a line: Mucus production in TR146 cells (PAS staining, image analysis). The class given is cell-based, human. Particulars: 0.5% FCS, 16 h incubation. The procedure: To evaluate possible effects of compatible solutes on mucus production an in vitro cell culture model was used. For this purpose a mucus producing cell line, TR146, served as a model for the situation in the human mouth. The cells were incubated with ectoine and other substances. After treatment the cells were stained with PAS (Periodic Acid-Schiff) to determine the mucus content.
TR146 cells were seeded and grown on glass plates in 96 wells until they reached nearly confluence. The glass plates were coated with Poly-L-Lysine to ensure a good attachment of the cells. After reaching confluence the cells were set to 0.5% FCS (Fetal Calf Serum) and were incubated with ectoine, glucosylglycerole and prostaglandine for 16 h, whereas the control sample was not treated further. Prostaglandine is known in the literature to stimulate mucus production (Tani et al., Biol Pharm Bull 25 (1), 2002, 14-18).
After the incubation time, cells were stained with a PAS staining kit from Sigma Aldrich to stain the whole mucus on top of the cells. For analysis pictures were taken with the Dino Eye Capture Camera. The pictures were afterwards analyzed with Image J software.
These areas were marked with the Image software Image J and the pixel area was determined. The average results were given as percentage relative to the control (=100%) (FIG. 2).
As to `CCCCC[C@H](O)/C=C/[C@H]1[C@H](O)CC(=O)[C@@H]1C/C=C\CCCC(=O)O` [Prostaglandin E2, reference compound], the “Mucus production (PAS-stained pixel area relative to control = 100%)” value was “showed an induction of mucus production”.
Turning to `OCC(CO)O[C@H]1O[C@H](CO)[C@@H](O)[C@H](O)[C@H]1O` [glucosylglycerol], the “Mucus production (PAS-stained pixel area relative to control = 100%)” value was “showed a tendency to stimulate the mucus production; also recorded: did so, too, although to a lesser extent”.
As for `CC1=NC(C(=O)O)CCN1` (stereo not drawn) [Ectoine, 1,4,5,6-tetrahydro-2-methyl-pyrimidine-4-carboxylic acid], the “Mucus production (PAS-stained pixel area relative to control = 100%)” value is on record as “showed a tendency to stimulate the mucus production; also recorded: did so, too, although to a lesser extent”.

Source of the values: US20170202835A1, “OSMOLYTE-CONTAINING PREPARATION FOR THE TREATMENT OF DRY MUCOUS MEMBRANES” (Bitop AG, priority 2007, published 2017).
